One test concerns the target T1, human GR (Homo sapiens, UniProt P04150).
T1 construct: SW1353 naturally expresses human GR; endogenous in cells; host or cells: human chondrosarcoma cell-line SW1353 stably transfected with an MMTV-luciferase reporter construct
T1 sequence (P04150 1-777): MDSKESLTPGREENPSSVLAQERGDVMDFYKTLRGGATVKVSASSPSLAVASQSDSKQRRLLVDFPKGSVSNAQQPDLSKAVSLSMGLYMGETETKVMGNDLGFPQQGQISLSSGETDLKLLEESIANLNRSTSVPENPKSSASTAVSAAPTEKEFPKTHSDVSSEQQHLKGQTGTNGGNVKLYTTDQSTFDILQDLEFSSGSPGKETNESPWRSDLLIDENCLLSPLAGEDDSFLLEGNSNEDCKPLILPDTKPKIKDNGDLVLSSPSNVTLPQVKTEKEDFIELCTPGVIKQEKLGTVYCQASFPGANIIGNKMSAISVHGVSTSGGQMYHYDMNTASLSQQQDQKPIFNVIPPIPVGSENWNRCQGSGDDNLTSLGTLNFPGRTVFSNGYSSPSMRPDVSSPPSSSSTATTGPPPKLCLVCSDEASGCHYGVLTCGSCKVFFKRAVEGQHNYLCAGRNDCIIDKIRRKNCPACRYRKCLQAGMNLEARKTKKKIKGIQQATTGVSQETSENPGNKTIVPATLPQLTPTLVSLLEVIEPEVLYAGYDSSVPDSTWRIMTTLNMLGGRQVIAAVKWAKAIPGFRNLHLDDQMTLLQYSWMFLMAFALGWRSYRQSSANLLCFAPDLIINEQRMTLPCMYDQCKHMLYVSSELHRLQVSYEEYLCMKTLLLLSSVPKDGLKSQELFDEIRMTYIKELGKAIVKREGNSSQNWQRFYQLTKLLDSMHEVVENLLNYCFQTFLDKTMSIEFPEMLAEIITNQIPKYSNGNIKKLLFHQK
Nature of the test: GR agonist potency, MMTV-luciferase reporter in SW1353 cells. It is filed as cell-based. The note with it: human chondrosarcoma cell-line SW1353 stably transfected with MMTV-luciferase reporter; approx. 18 hours; data as percentage of 1 μM dexamethasone positive control. As for the experimental part: Glucococorticoid receptor (GR) agonist potency was determined in the human chondrosarcoma cell-line SW1353 stably transfected with an MMTV-luciferase reporter construct. SW1353 naturally expresses human GR, which on binding a glucocorticoid agonist activates glucocorticoid response elements within the MMTV promoter, driving expression of the luciferase gene.
Frozen SW1353 cells were revived in DMEM medium, without sodium pyruvate or phenol red, supplemented with 2 mM L-glutamine, 1 μg/ml insulin, 2 mg/ml lactalbumin hydrosylate and 0.5 μg/ml ascorbate. Cells were seeded at approximately 5000 cells/well (35 μl/well) in 384-well clear bottom, tissue culture treated plates. Steroid dose-response dilutions were prepared in steroid diluent (PBS containing 2.5% (v/v) DMSO and 0.05% (v/v) pluronic detergent) and 5 μl added to each well. The volume was made up to 50 μl per well with steroid diluent. Positive control wells contained 1 μM dexamethasone. Plates were incubated for approximately 18 hours at 37° C. in an air/5% CO2 atmosphere in a humidified incubator before Britelite reagent (10 μl; Perkin-Elmer) was added to each well. Each plate was incubated for 2 minutes in the dark and luminescence quantified using a LJL Biosystems Analyst luminometer. Data for test compounds (expressed as percentage of the dexamethasone positive control) were used to construct dose response curves from which EC50 values were estimated.
A general note: A reporter such as luciferase makes a cellular process visible.

Test [1] in a line: Inhibition of TNF-α release from LPS stimulated isolated human PBMC. It is filed as cell-based. Conditions: Homo sapiens, PBMC, read-out: IC50 (nM) for inhibition of TNF-α release. As for the experimental part: The anti-inflammatory activity of the compounds against human leukocytes in vitro was also evaluated by determining inhibition of tumour necrosis factor-α (TNF-α) release from lipopolysaccharide (LPS) stimulated isolated human peripheral mononuclear cells (PBMC).
Peripheral venous blood from healthy, non-medicated donors was collected using ethylenediaminetetraacetic acid (EDTA) as the anti-coagulant. For PBMC preparation, samples of blood were diluted 1:1 with sterile phosphate buffered saline and then separated using ACCUSPIN™ System-Histopaque®-1077 tubes (Sigma-Aldrich, St Louis, Mo.), centrifuged at 400 g for 35 minutes. Buffy coat cells were removed into PBS, centrifuged at 200 g for 10 minutes and re-suspended in PBMC assay buffer (Hanks Balanced Salt Solution, 0.28% [w/v] 4-[2-hydroxyethyl]-1-piperazineethanesulfonic acid [HEPES], 0.01% [w/v] low-endotoxin bovine serum albumin [BSA]. A differential white cell count was performed and PBMC's diluted to 1×10^6 lymphocytes per ml in PBMC assay buffer.
Test compounds were dissolved in DMSO and diluted in PBMC assay buffer (final DMSO concentration 1%) to cover an appropriate concentration range, e.g 0.001 nM to 10000 nM. Samples of test compound solution or vehicle (20 μl) were added into 96-well tissue culture treated plates (Corning) and PBMC (160 μl) added to each well. The assay mixtures were incubated at 37° C. for 1 h in a humidified incubator containing an atmosphere of air supplemented with 5% CO2 before adding LPS (20 μl of 100 ng/ml for PBMC). Plates were returned to the incubator for a further 18 hours, and then centrifuged before recovery of samples of supernatant. TNF-α in the samples was determined using an enzyme-linked immunosorbent assay (ELISA) (Invitrogen kit no CHC-1754; Invitrogen Carlsbad, Calif.) and following the manufacturers instructions. Dose response curves were constructed from which IC50 values were calculated.

pEC50: −log10 of the molar value.

Compound `C[C@]12C=CC(=O)C=C1[C@@H](F)C[C@H]1[C@@H]3CC[C@](OC(=O)c4ccc(Cc5ccccc5)cc4)(C(=O)OCC#N)[C@@]3(C)C[C@H](O)[C@@]12F` [Example 1, cyanomethyl(6alpha,11beta,17alpha)-17-[(4-benzylbenzoyl)oxy]-6,9-difluoro-11-hydroxy-3-oxoandrosta-1,4-diene-17-carboxylate] showed a pEC50 at human GR of 7.65. Also, the IC50 in test [1] is 0.095 nM.
As for `C[C@]12C=CC(=O)C=C1[C@@H](F)C[C@H]1[C@@H]3CC[C@](OC(=O)c4ccc(-c5ccccc5)cc4)(C(=O)OCC#N)[C@@]3(C)C[C@H](O)[C@@]12F` [Example 2, Cyanomethyl(6alpha,11beta,17alpha)-17-[(biphenyl-4-ylcarbonyl)oxy]-6,9-difluoro-11-hydroxy-3-oxoandrosta-1,4-diene-17-carboxylate], on human GR, the pEC50 was 6.94. Also, in test [1], the IC50 was determined as 0.373 nM.
On to `C[C@]12C=CC(=O)C=C1[C@@H](F)C[C@H]1[C@@H]3CC[C@](OC(=O)c4ccc(Sc5ccccc5)cc4)(C(=O)OCC#N)[C@@]3(C)C[C@H](O)[C@@]12F` [Example 3, cyanomethyl (6alpha,11beta,17alpha)-6,9-difluoro-11-hydroxy-3-oxo-17-{[4-(phenylthio)benzoyl]oxy}androsta-1,4-diene-17-carboxylate], for which, on human GR, the pEC50 was 7.30. Further, in test [1], the IC50 amounted to 0.143 nM.
On to `C[C@]12C=CC(=O)C=C1[C@@H](F)C[C@H]1[C@@H]3CC[C@](OC(=O)c4ccc(Oc5ccccc5)cc4)(C(=O)OCC#N)[C@@]3(C)C[C@H](O)[C@@]12F` [Example 4, cyanomethyl (6alpha,11beta,17alpha)-6,9-difluoro-11-hydroxy-3-oxo-17-[(4-phenoxybenzoyl)oxy]androsta-1,4-diene-17-carboxylate], for which the pEC50 at human GR is 7.63. Further, the half-maximal inhibitory concentration (IC50) in test [1] turned out to be 0.154 nM.
The matching figures for `C[C@]12C=CC(=O)C=C1[C@@H](F)C[C@H]1[C@@H]3CC[C@](OC(=O)c4ccc(CSc5ccccc5)cc4)(C(=O)OCC#N)[C@@]3(C)C[C@H](O)[C@@]12F` [Example 5, cyanomethyl (6alpha,11beta,17alpha)-6,9-difluoro-11-hydroxy-3-oxo-17-({4-[(phenylthio)methyl]benzoyl}oxy)androsta-1,4-diene-17-carboxylate]: 7.48 and 0.152 nM.
`C[C@]12C=CC(=O)C=C1[C@@H](F)C[C@H]1[C@@H]3CC[C@](OC(=O)c4ccc(SCc5ccc(O)cc5)cc4)(C(=O)OCC#N)[C@@]3(C)C[C@H](O)[C@@]12F` [Example 6, cyanomethyl (6alpha,11beta,17alpha)-6,9-difluoro-11-hydroxy-17-({4-[(4-hydroxybenzyl)thio]benzoyl}oxy)-3-oxoandrosta-1,4-diene-17-carboxylate] showed a pEC50 on human GR of 7.63. Moreover, in test [1], the IC50 was found to be 0.207 nM.
For the compound `C[C@]12C=CC(=O)C=C1CC[C@H]1[C@@H]3CC[C@](OC(=O)c4ccc(-c5ccccc5)cc4)(C(=O)OCC#N)[C@@]3(C)C[C@H](O)[C@@]12F` [Example 7, cyanomethyl (11beta,17alpha)-17-[(biphenyl-4-ylcarbonyl)oxy]-9-fluoro-11-hydroxy-3-oxoandrosta-1,4-diene-17-carboxylate], on human GR, the pEC50 is 7.40. Moreover, the concentration for half-maximal inhibition (IC50) in test [1] was determined as 0.555 nM.
Take `C[C@]12C=CC(=O)C=C1CC[C@H]1[C@@H]3CC[C@](OC(=O)c4ccc(Sc5ccccc5)cc4)(C(=O)OCC#N)[C@@]3(C)C[C@H](O)[C@@]12F` [Example 8, cyanomethyl (11beta,17alpha)-9-fluoro-11-hydroxy-3-oxo-17-{[4-(phenylthio)benzoyl]oxy}androsta-1,4-diene-17-carboxylate]: at human GR, the pEC50 was 7.60. Also, the IC50 in test [1] turned out to be 0.292 nM.
The compound `CSc1cccc(Sc2ccc(C(=O)O[C@]3(C(=O)OCC#N)CC[C@H]4[C@@H]5CCC6=CC(=O)C=C[C@]6(C)[C@@]5(F)[C@@H](O)C[C@@]43C)cc2)c1` [Example 10, cyanomethyl (11beta,17alpha)-9-fluoro-11-hydroxy-17-[(4-{[3-(methylthio)-phenyl]thio}benzoyl)oxy]-3-oxoandrosta-1,4-diene-17-carboxylate] had a pEC50 on human GR of 7.21. In addition, the IC50 in test [1] came to 0.826 nM.
Consider `C[C@]12C=CC(=O)C=C1[C@@H](F)C[C@H]1[C@@H]3CC[C@](OC(=O)c4ccc(CSc5ccc(O)cc5)cc4)(C(=O)OCC#N)[C@@]3(C)C[C@H](O)[C@@]12F` [Example 11, cyanomethyl(6alpha,11beta,17alpha)-6,9-difluoro-11-hydroxy-17-[(4-{[(4-hydroxyphenyl)thio]methyl}benzoyl)oxy]-3-oxoandrosta-1,4-diene-17-carboxylate], for which the pEC50 at human GR was 7.52. Also, the IC50 in test [1] is 0.735 nM.
For the compound `C[C@]12C=CC(=O)C=C1CC[C@H]1[C@@H]3CC[C@](OC(=O)c4ccc(Oc5ccc(O)c(Cl)c5)cc4)(C(=O)SCC#N)[C@@]3(C)C[C@H](O)[C@@]12F` [Example 12, (11beta,17alpha)-17-{[(cyanomethyl)thio]-carbonyl}-9-fluoro-11-hydroxy-3-oxoandrosta-1,4-dien-17-yl 4-(3-chloro-4-hydroxyphenoxy)benzoate], the pEC50 on human GR is 6.93. Further, the IC50 in test [1] is 0.345 nM.
On to `C[C@]12C=CC(=O)C=C1CC[C@H]1[C@@H]3CC[C@](OC(=O)c4ccc(Sc5ccc(O)c(Cl)c5)cc4)(C(=O)SCC#N)[C@@]3(C)C[C@H](O)[C@@]12F` [Example 13, (11beta,17alpha)-17-{[(cyanomethyl)thio]carbonyl}-9-fluoro-11-hydroxy-3-oxoandrosta-1,4-dien-17-yl 4-[(3-chloro-4-hydroxyphenyl)thio]benzoate], for which, on human GR, the pEC50 was 7.09. The IC50 in test [1] came out at 0.799 nM.
`C[C@]12C=CC(=O)C=C1CC[C@H]1[C@@H]3CC[C@](OC(=O)c4ccc(Oc5ccccc5)cc4)(C(=O)OCC#N)[C@@]3(C)C[C@H](O)[C@@]12F` [Example 14, cyanomethyl(11beta,17alpha)-9-fluoro-11-hydroxy-3-oxo-17-[(4-phenoxybenzoyl)oxy]androsta-1,4-diene-17-carboxylate]: on human GR, the pEC50 is 7.62. Besides, the concentration for half-maximal inhibition (IC50) in test [1] came out at 0.234 nM.
On to `C[C@]12C=CC(=O)C=C1CC[C@H]1[C@@H]3CC[C@](OC(=O)c4ccc(Sc5cccc(O)c5)cc4)(C(=O)OCC#N)[C@@]3(C)C[C@H](O)[C@@]12F` [Example 15, cyanomethyl(11beta,17alpha)-9-fluoro-11-hydroxy-17-({4-[(3-hydroxyphenyl)thio]-benzoyl}oxy)-3-oxoandrosta-1,4-diene-17-carboxylate], for which the pEC50 on human GR was 7.45. In test [1], the IC50 is 0.164 nM.

As a reminder, the pEC50 is the negative decadic logarithm of the EC50, by convention in mol/L. A word on the IC50: it is the concentration that gives 50% inhibition.

The values above are taken from patent US20100303758A1, “Novel Glucocorticoid Receptor Agonists” (priority 2009, published 2010).
